From paper PMC8806947, “β-galactosidase GALA from Bacillus circulans with high transgalactosylation activity” (Bioengineered, 2021)

Assays:
[1] = target: T1, GALA (β-galactosidase from Bacillus circulans) (Niallia circulans, UniProt E5RWQ2); assay: o-nitrophenol release, absorbance at […] nm; format: biochemical; conditions: 0.25% oNPG, 20 mM phosphate-citrate pH 6.0, 45 °C, 15 min
T1 construct: gene bga; codon-optimised synthetic gene (galAm) with His-tag, secreted from Pichia pastoris GS115 (pPICZαA); HisTrap and gel filtration; predicted 1703 residues, 190 kDa; glycosylated

[2] = target: T1, GALA (β-galactosidase from Bacillus circulans); assay: HPLC and TLC of hydrolysis and transgalactosylation products; format: biochemical; conditions: 200-500 g/L lactose, 0.1 M phosphate-citrate pH 5-7, 30-50 °C; also galactosyl acceptor

T1 sequence (E5RWQ2 24-1737): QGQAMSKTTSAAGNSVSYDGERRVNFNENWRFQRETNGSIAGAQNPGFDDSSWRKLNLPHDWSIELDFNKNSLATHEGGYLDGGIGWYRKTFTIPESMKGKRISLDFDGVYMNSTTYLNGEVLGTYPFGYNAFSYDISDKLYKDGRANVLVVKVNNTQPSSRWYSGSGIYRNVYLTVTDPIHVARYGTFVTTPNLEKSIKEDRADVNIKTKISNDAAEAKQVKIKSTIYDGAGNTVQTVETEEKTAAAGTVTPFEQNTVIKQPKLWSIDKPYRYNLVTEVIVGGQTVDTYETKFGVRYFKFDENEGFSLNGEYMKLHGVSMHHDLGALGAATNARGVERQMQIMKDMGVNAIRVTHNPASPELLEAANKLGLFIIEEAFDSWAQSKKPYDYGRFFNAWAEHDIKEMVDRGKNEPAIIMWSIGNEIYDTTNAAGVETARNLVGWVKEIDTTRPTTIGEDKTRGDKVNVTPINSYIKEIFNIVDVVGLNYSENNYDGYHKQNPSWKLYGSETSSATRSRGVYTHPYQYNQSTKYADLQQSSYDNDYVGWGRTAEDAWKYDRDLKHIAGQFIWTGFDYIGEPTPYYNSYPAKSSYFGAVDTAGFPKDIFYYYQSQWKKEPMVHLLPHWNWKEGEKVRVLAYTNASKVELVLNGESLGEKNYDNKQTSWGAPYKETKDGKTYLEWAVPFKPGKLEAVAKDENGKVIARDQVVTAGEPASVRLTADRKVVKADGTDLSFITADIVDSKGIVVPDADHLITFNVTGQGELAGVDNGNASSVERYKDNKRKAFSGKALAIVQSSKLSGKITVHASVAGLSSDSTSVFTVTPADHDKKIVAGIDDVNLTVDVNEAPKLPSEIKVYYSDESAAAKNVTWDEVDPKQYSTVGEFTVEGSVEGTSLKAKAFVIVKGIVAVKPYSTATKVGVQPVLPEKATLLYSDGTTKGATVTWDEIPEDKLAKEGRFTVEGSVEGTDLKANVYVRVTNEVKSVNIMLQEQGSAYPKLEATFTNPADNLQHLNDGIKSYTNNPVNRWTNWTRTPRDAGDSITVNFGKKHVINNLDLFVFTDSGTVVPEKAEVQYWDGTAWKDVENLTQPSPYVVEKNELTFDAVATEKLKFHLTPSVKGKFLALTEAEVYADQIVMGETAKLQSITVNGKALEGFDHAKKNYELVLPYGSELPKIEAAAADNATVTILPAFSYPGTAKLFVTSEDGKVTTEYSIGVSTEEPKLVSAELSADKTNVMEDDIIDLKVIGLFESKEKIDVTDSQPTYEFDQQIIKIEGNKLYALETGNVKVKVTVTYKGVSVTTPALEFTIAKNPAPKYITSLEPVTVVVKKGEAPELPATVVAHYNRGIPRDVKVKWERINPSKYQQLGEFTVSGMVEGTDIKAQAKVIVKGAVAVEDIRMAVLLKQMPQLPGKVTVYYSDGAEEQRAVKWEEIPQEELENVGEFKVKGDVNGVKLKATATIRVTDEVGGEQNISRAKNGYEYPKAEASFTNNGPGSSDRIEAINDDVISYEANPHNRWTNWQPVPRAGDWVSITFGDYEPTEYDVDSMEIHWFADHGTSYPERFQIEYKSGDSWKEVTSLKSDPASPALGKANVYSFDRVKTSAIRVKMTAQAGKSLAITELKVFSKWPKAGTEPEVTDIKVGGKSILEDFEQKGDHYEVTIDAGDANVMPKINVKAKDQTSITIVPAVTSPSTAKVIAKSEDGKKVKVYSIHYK

Row | Compound | o-nitrophenol release, absorbance at 420 nm [1] | HPLC and TLC of hydrolysis and transgalactosylation products [2]
1 | O=[N+]([O-])c1ccccc1O[C@@H]1O[C@H](CO)[C@H](O)[C@H](O)[C@H]1O [O-nitrophenyl-β-D-galactopyranoside] | The experiments were carried out three times using ONPG as the substrate | –
2 | OC[C@H]1O[C@@H](O[C@H]2[C@H](O)[C@@H](O)C(O)O[C@@H]2CO)[C@H](O)[C@@H](O)[C@H]1O (some centres unmarked) [lactose] | – | enzymatic transgalactosylation activity of the β-galactosidase, using lactose as the substrate
